Test results published in patent US20130143929A1, “FUNGICIDAL IMIDAZOLES” (EI DU PONT DE NEMOURS AND COMPANY, priority 2010, published 2013).
Marks after values point to notes of the source that are not given here.

Assays:
Assay type in all cases: in vivo
[1] = tested on: Puccinia recondite f. sp. tritici (the causal agent of wheat leaf rust); test: Test A: wheat leaf rust, preventive spray on wheat seedlings, visual disease rating; conditions: wheat leaf rust, preventive spray on wheat seedlings
In short: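 Wheat seedlings were sprayed to run-off with compound suspended in acetone/water containing 250 ppm Trem 014 (200 ppm ≈ 800 g/ha; some at 40 ppm). Puccinia recondite spores were inoculated the next day. Plants were held 24 h saturated at 20° C, then 7 days at 20° C, and disease control was rated visually on a 0–100 scale against controls.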

[2] = tested on: Septoria tritici (the causal agent of wheat leaf blotch); test: Test B: wheat leaf blotch, preventive spray on wheat seedlings, visual disease rating; conditions: wheat leaf blotch, preventive spray on wheat seedlings
In short: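 Wheat seedlings sprayed to run-off with compound suspension (acetone/water with 250 ppm Trem 014; 200 ppm ≈ 800 g/ha, some at 40 ppm), inoculated next day with Septoria tritici spores. 48 h saturated humidity at 24 °C, then 19 days at 20 °C; visual rating, 100 = full control.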

[3] = tested on: Blumeria graminis f. sp. tritici (also known as Erysiphe graminis f. sp. tritici, the causal agent of wheat powdery mildew); test: Test D: wheat powdery mildew, preventive spray on wheat seedlings, visual disease rating; conditions: wheat powdery mildew, preventive spray on wheat seedlings
In short: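 Compound suspended in acetone/water (50/50) with 250 ppm Trem 014 and sprayed to run-off on wheat seedlings (200 ppm ≈ 800 g/ha), then inoculated next day with spore dust. Disease rated visually after 8 days at 20 °C as % control relative to untreated plants (0-100).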

[4] = tested on: Botrytis cinerea (the causal agent of tomato Botrytis); test: Test C: tomato Botrytis, preventive spray on tomato seedlings, visual disease rating; conditions: tomato Botrytis, preventive spray on tomato seedlings
In short: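 Test suspension (acetone/water with 250 ppm Trem 014; 200 ppm equivalent to 800 g/ha) sprayed to run-off on tomato seedlings; B. cinerea spores inoculated next day. After 48 h saturated humidity at 20° C then 3 days at 24° C, disease rated visually as % control relative to untreated controls (0–100).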

[5] = asterisk: 40 ppm test suspension
[6] = no asterisk (standard test suspension concentration, not 40 ppm)

Structure (SMILES)	Test A rating (100 = 100% disease control, 0 = no disease control relative to the controls) [1, 5]	Test B rating (100 = 100% disease control, 0 = no disease control relative to the controls) [2, 5]	Test D rating (100 = 100% disease control, 0 = no disease control relative to the controls) [3, 5]	Test C rating (100 = 100% disease control, 0 = no disease control relative to the controls) [4, 5]	Test A rating (100 = 100% disease control, 0 = no disease control relative to the controls) [1, 6] [%]	Test B rating (100 = 100% disease control, 0 = no disease control relative to the controls) [2, 6] [%]	Test D rating (100 = 100% disease control, 0 = no disease control relative to the controls) [3, 6] [%]	Test C rating (100 = 100% disease control, 0 = no disease control relative to the controls) [4, 6] [%]
COc1ccc(C(O)c2c(Br)nc(Br)n2-c2c(F)cccc2F)c(Cl)c1 (racemic) [compound 286]	100* %	100* %	97* %	100* %				
Cc1cccc(C)c1-n1c(C)nc(Cl)c1C(O)c1ccc(F)cc1Cl (racemic) [compound 226]					94	98	0	6
Cc1ncc(C(O)c2ccc(F)cc2F)n1-c1c(F)cccc1F (stereo not drawn) [compound 97]	95* %	100* %	0* %	0* %				
COc1ccc(C(O)c2c(Cl)nc(C)n2-c2ccc(F)cc2Cl)c(Cl)c1 (racemic) [compound 255]					100	96	0	8
OC(c1ccc(F)cc1Cl)c1c(Br)ncn1-c1ccc(F)cc1Cl (racemic) [compound 215]	92* %	85* %	0* %	55* %				
Cc1cc(F)ccc1C(O)c1c(Cl)nc(C)n1-c1c(F)cc(Cl)cc1F (stereo not drawn) [compound 111]	98* %	100* %	0* %	0* %				
OC(c1ccc(Cl)cc1)c1c(Cl)nc(Cl)n1-c1ccc(Cl)cc1Cl (single isomer, unassigned) [compound 86]					96	100	56	73
OC(c1ccc(F)cc1F)c1c(Cl)nc(Cl)n1-c1c(F)cc(Cl)cc1F (stereo not drawn) [compound 154]	100* %	100* %	89* %	100* %				
Cc1nc(Cl)n(-c2c(F)cccc2Br)c1C(O)c1ccc(F)cc1F (stereo not drawn) [compound 205]	99* %	100* %	93* %	100* %				
OC(c1ccc(F)cc1F)c1c(Cl)nc(Cl)n1-c1ccc(F)cc1F (single isomer, unassigned) [compound 79]					100	100	0	98
Cc1ncc(C(O)c2ccc(F)cc2Cl)n1-c1c(F)cc(F)cc1F (stereo not drawn) [Compound 167, α-(2-chloro-4-fluorophenyl)-2-methyl-1-(2,4,6-trifluorophenyl)-1H-imidazole-5-methanol]					100	100	0	33
Cc1cccc(Cl)c1-n1c(C)nc(Br)c1C(O)c1ccc(F)cc1Cl (stereo not drawn) [compound 343]	96* %	100* %	69* %	84* %				
Cc1cccc(Cl)c1-n1c(C)nc(Cl)c1C(O)c1ccc(F)cc1F (stereo not drawn) [compound 320]	99* %	100* %	79* %	96* %				
Cc1cccc(F)c1-n1c(C)nc(Br)c1C(O)c1ccc(F)cc1F (stereo not drawn) [compound 341]	94* %	100* %	43* %	86* %				
Cc1ncc(C(O)c2ccc(F)cc2F)n1-c1c(F)cc(Cl)cc1F (stereo not drawn) [compound 122]	98* %	100* %	0* %	0* %				
Cc1ncc(C(O)c2ccc(Cl)cc2)n1-c1ccc(Cl)cc1Cl (racemic) [compound 242]	94* %	50* %	0* %	29* %				
Cc1nc(Br)c(C(O)c2ccc(F)cc2Cl)n1-c1c(F)cc(Cl)cc1F (stereo not drawn) [compound 116]	99* %	100* %	0* %	0* %				
Cc1nc(Br)c(C(O)c2ccc(Cl)cc2F)n1-c1c(F)cccc1F (stereo not drawn) [compound 179]	68* %	100* %	43* %	78* %				
COc1cc(F)c(C(O)c2c(Br)nc(C)n2-c2c(F)cccc2F)c(F)c1 (stereo not drawn) [compound 147]	100* %	100* %	0* %	99* %				
OC(c1ccc(F)cc1Br)c1c(Cl)nc(C2CC2)n1-c1c(F)cccc1Br (stereo not drawn) [compound 72]					79	100	43	0
Cc1cc(F)ccc1C(O)c1c(Br)nc(C)n1-c1c(F)cccc1F (stereo not drawn) [compound 88]					99	100	90	96
Cc1nc(Br)c(C(O)c2ccc(F)cc2)n1-c1c(F)cccc1F (stereo not drawn) [compound 133]	100* %	100* %	64* %	100* %				
Cc1cc(F)ccc1C(O)c1c(Cl)nc(Cl)n1-c1c(F)cccc1Cl (racemic) [compound 23]					100	100	100	100
Cc1nc(Cl)n(-c2c(F)cc(F)cc2Br)c1C(O)c1ccc(F)cc1F (single isomer, unassigned) [compound 17]					100	100	100	100
